According to patent US6414157B1, “3-Substituted tetrahydropyridopyrimidinone derivatives, method for producing the same, and their use” (Abbott Laboratories, priority 1997, dated 2002):
Where a name gives a salt, the structure may show the parent alone.

Assays:
[1] = system: serotonin release in the dorsal raphe nucleus; conditions: dorsal raphe nucleus of the rat; together with paroxetine; cited from earlier work
[2] = system: serotonin release in the cortex; conditions: after systemic administration; cited from earlier work

melting point | SMILES | effect of paroxetine on serotonin release [1] | serotonin release in the cortex [2]
181 °C | COc1ccccc1N1CCN(CCn2cnc3c(c2=O)CCN(Cc2ccccc2)C3)CC1 (as salt: hydrochloride) |  | 
198 °C | COc1ccccc1N1CCN(CCCn2cnc3c(c2=O)CN(Cc2ccccc2)CC3)CC1 (as salt: hydrochloride) |  | 
 | COc1ccc(NC(=O)c2ccc(-c3ccc(-c4noc(C)n4)cc3C)cc2)cc1N1CCN(C)CC1 [GR 127 935] | potentiated | reduces serotonin release in the cortex
